In ChEMBL document CHEMBL2150908, “Discovery of 2-Alkyl-1-arylsulfonylprolinamides as 11β-Hydroxysteroid Dehydrogenase Type 1 Inhibitors” (ACS Med Chem Lett, 2012):

Key:
[1] = biological target: T1, 11-beta-hydroxysteroid dehydrogenase 1 (Mus musculus, UniProt P50172); experiment: Inhibition of mouse 11betaHSD1 in 3T3L1 cells assessed as conversion of [1,2-(N)3H]-cortisone to cortisol after 1 hr by liquid scintillation counter; type: cell-based, 3T3-L1
[2] = organism: Mus musculus; experiment: Clearance in BALB/c mouse; type: ADME, organism-based; conditions: in vivo
[3] = AUC (0 to t) in BALB/c mouse at 5 mg/kg, ip; type: ADME, organism-based; set-up: dose 5 mg/kg, route intraperitoneal; conditions: plasma
[4] = Bioavailability in BALB/c mouse at 5 mg/kg, ip; type: ADME, organism-based; conditions: in vivo
[5] = Oral bioavailability in BALB/c mouse at 5 mg/kg; type: ADME, organism-based; conditions: in vivo
[6] = Half life in BALB/c mouse at 1 mg/kg, iv; type: ADME, organism-based; set-up: dose 1 mg/kg, route intravenous; conditions: in vivo
[7] = Volume of distribution at steady state in BALB/c mouse; type: ADME, organism-based; conditions: in vivo, read-out: Vdss
[8] = biological target: T2, 11-beta-hydroxysteroid dehydrogenase type 2 (Homo sapiens, UniProt P80365); experiment: Inhibition of human 11betaHSD2
T2 sequence (P80365 whole entry): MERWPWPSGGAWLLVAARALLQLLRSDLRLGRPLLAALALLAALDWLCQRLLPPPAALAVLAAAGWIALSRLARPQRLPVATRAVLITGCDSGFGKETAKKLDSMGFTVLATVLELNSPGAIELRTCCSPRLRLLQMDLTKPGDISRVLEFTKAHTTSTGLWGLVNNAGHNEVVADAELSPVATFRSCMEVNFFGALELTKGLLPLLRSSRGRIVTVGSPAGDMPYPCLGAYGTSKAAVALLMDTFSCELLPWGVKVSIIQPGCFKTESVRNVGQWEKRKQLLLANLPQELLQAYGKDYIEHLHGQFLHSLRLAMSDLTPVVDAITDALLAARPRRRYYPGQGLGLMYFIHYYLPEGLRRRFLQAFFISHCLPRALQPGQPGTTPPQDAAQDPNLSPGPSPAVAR

[9] = Intrinsic clearance in human liver microsomes assessed as per mg of protein; type: ADME, Microsome; conditions: read-out: CLH
[10] = biological target: T1, 11-beta-hydroxysteroid dehydrogenase 1; experiment: Inhibition of mouse 11betaHSD1 by scintillation proximity assay
[11] = biological target: T3, 11-beta-hydroxysteroid dehydrogenase 1 (Homo sapiens, UniProt P28845); experiment: Inhibition of human 11betaHSD1 by scintillation proximity assay
Target sequence in this assay (P28845 whole entry): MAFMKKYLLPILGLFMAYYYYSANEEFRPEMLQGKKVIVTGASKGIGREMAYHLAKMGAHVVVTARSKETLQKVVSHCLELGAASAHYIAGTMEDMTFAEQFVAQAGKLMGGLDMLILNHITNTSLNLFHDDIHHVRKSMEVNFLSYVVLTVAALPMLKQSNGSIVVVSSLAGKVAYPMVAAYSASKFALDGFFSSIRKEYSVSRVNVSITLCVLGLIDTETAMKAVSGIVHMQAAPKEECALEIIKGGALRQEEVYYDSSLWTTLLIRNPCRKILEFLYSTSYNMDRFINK

[12] = biological target: 11-beta-hydroxysteroid dehydrogenase 1 (Mus musculus) (UniProt P50172); experiment: Inhibition of mouse 11betaHSD1 at 100 nM by scintillation proximity assay
Sequence of 11-beta-hydroxysteroid dehydrogenase 1 (Mus musculus) (P50172 whole entry, looked up): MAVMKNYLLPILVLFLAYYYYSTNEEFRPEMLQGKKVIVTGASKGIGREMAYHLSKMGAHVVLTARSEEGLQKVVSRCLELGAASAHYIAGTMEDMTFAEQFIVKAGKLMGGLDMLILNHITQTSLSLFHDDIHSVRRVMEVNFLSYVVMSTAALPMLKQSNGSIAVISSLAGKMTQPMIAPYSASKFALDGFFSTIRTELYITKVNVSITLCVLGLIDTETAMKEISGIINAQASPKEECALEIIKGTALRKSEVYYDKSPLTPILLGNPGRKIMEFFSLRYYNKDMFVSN

[13] = biological target: T3, 11-beta-hydroxysteroid dehydrogenase 1; experiment: Inhibition of human 11betaHSD1 at 100 nM by scintillation proximity assay
Target sequence in this assay (P28845 whole entry, looked up): as the sequence (P28845 whole entry) above

[14] = tested on: Mus musculus; experiment: Inhibition of 11betaHSD1 in BALB/c mouse using prednisone as substrate assessed as reduction of prednisolone production at 30 mg/kg, ip administered 1 hr prior to substrate addition measured after 2 mins post substrate addition by LC/MS/MS analysis; type: functional; conditions: route intraperitoneal
[15] = tested on: Mus musculus; experiment: Inhibition of 11betaHSD1 in BALB/c mouse using prednisone as substrate assessed as reduction of prednisolone production at 10 mg/kg, ip administered 1 hr prior to substrate addition measured after 2 mins post substrate addition by LC/MS/MS analysis; type: functional; conditions: route intraperitoneal
[16] = tested on: Mus musculus; experiment: Inhibition of 11betaHSD1 in BALB/c mouse using prednisone as substrate assessed as reduction of prednisolone production at 3 mg/kg, ip administered 1 hr prior to substrate addition measured after 2 mins post substrate addition by LC/MS/MS analysis; type: functional; conditions: route intraperitoneal
[17] = tested on: Mus musculus; experiment: Inhibition of 11betaHSD1 in ip dosed BALB/c mouse using prednisone as substrate assessed as reduction of prednisolone production administered 1 hr prior to substrate addition measured after 2 mins post substrate addition by LC/MS/MS analysis; type: functional, organism-based
[18] = tested on: Mus musculus; experiment: Inhibition of 11betaHSD1 in BALB/c mouse using prednisone as substrate assessed as remaining prednisolone level at 3 mg/kg, ip administered 1 hr prior to substrate addition measured after 2 mins post substrate addition by LC/MS/MS analysis; type: functional; conditions: route intraperitoneal
[19] = tested on: Mus musculus; experiment: Inhibition of 11betaHSD1 in BALB/c mouse using prednisone as substrate assessed as remaining prednisolone level at 30 mg/kg, ip administered 1 hr prior to substrate addition measured after 2 mins post substrate addition by LC/MS/MS analysis; type: functional; conditions: route intraperitoneal
[20] = Plasma concentration in BALB/c mouse at 3 mg/kg, ip administered 1 hr prior to prednisone addition measured after 2 mins post prednisone addition by LC/MS/MS analysis; type: ADME, organism-based; set-up: dose 3 mg/kg, route intraperitoneal
[21] = Plasma concentration in BALB/c mouse at 10 mg/kg, ip administered 1 hr prior to prednisone addition measured after 2 mins post prednisone addition by LC/MS/MS analysis; type: ADME, organism-based; set-up: dose 10 mg/kg, route intraperitoneal
[22] = Plasma concentration in BALB/c mouse at 30 mg/kg, ip administered 1 hr prior to prednisone addition measured after 2 mins post prednisone addition by LC/MS/MS analysis; type: ADME, organism-based; set-up: dose 30 mg/kg, route intraperitoneal
[23] = tested on: Mus musculus; experiment: Inhibition of 11betaHSD1 in BALB/c mouse using prednisone as substrate assessed as remaining prednisolone level at 10 mg/kg, ip administered 1 hr prior to substrate addition measured after 2 mins post substrate addition by LC/MS/MS analysis; type: functional; conditions: route intraperitoneal

T1 sequence (P50172 whole entry): as the sequence (P50172 whole entry, looked up) above

| Structure (SMILES) | microsomal CLint [9] [µL/min/mg] | IC50 [10] [nM] | inhibition [12] [%] | further results |
| --- | --- | --- | --- | --- |
| CO[C@H]1CC[C@H](NC(=O)[C@@]2(C)CCCN2S(=O)(=O)c2cccc(Cl)c2C)CC1 | – | – | 15 | inhibition [13]: 37% |
| Cc1c(Cl)cccc1S(=O)(=O)N1CCC[C@]1(C)C(=O)NC1CCCCC1 | 140 | – | 9.2 | – |
| CC(=O)c1ccc(S(=O)(=O)N2CCC[C@]2(C)C(=O)N[C@H]2C3CC4CC2C[C@](O)(C4)C3)cc1 | 12 | – | 16 | – |
| CC(O)(c1ccc(S(=O)(=O)N2CCC[C@]2(C)C(=O)N[C@H]2C3CC4CC2C[C@](C#N)(C4)C3)cc1)C(F)(F)F (stereo not given in full) | – | – | 9.5 | – |
| CC(O)(c1ccc(S(=O)(=O)N2CCC[C@]2(C)C(=O)N[C@H]2C3CC4CC2C[C@](O)(C4)C3)cc1)C(F)(F)F (stereo not given in full) | 64 | – | 26 | – |
| C[C@]1(C(=O)N[C@H]2C3CC4CC2C[C@](O)(C4)C3)CCCN1S(=O)(=O)c1ccc(Br)s1 | 57 | 97 | – | – |
| Cc1c(Cl)cccc1S(=O)(=O)N1CCC[C@@H]1C(=O)NC1CCCCC1 | 430 | – | – | – |
| COC(=O)[C@H]1CC2COCC(C1)[C@H]2NC(=O)[C@@]1(C)CCCN1S(=O)(=O)c1cccc(Cl)c1C | – | – | 33 | – |
| Cc1c(Cl)cccc1S(=O)(=O)N1CCC[C@]1(C)C(=O)NC12CC3CC(CC(O)(C3)C1)C2 | – | – | 18 | inhibition [13]: 35% |
| Cc1c(Cl)cccc1S(=O)(=O)N1CCC[C@]1(C)C(=O)NC1C2CC3CC(C2)CC1C3 (stereo not given in full) | 499 | 64 | – | – |
| COc1ccc(S(=O)(=O)N2CCC[C@]2(C)C(=O)N[C@H]2C3CC4CC2C[C@](O)(C4)C3)cc1OC | 132 | – | 3 | – |
| COC(=O)[C@]12CC3CC(C1)[C@@H](NC(=O)[C@@]1(C)CCCN1S(=O)(=O)c1ccc(C(C)(O)C(F)(F)F)cc1)C(C3)C2 (stereo not given in full) | – | – | 14 | – |
| Cc1c(Cl)cccc1S(=O)(=O)N1CCC[C@]1(C)C(=O)N[C@H]1CC[C@H](O)CC1 | – | – | 13 | – |

Continued, in another order:

| microsomal CLint [9] [µL/min/mg] | IC50 [10] [nM] | inhibition [12] [%] | Structure (SMILES) | further results |
| --- | --- | --- | --- | --- |
| 106 | 1.3 | – | Cc1c(Cl)cccc1S(=O)(=O)N1CCC[C@]1(C)C(=O)N[C@H]1C2CC3CC1C[C@](O)(C3)C2 | IC50 [1]: 121 nM; clearance [2]: 90 mL/min/kg; AUC(0-t) [3]: 597 ng·h/mL; bioavailability [4]: 63%; bioavailability [5]: 9.1%; half-life [6]: 14 min; Vd [7]: 0.51 L/kg; IC50 [8]: 2200 nM; IC50 [11]: 0.1 nM |
| 55 | – | 17 | C[C@]1(C(=O)N[C@H]2C3CC4CC2C[C@](O)(C4)C3)CCCN1S(=O)(=O)c1cccnc1 | – |
| – | 164 | – | CC[C@]1(C(=O)N[C@H]2C3CC4CC2C[C@](O)(C4)C3)CCCN1S(=O)(=O)c1cccc2cccnc12 | – |
| – | 87 | – | C=CC[C@]1(C(=O)N[C@H]2C3CC4CC2C[C@](O)(C4)C3)CCCN1S(=O)(=O)c1cccc2cccnc12 | inhibition [13]: 33% |
| 148 | – | 31 | CN(C)c1cccc2c(S(=O)(=O)N3CCC[C@]3(C)C(=O)N[C@H]3C4CC5CC3C[C@](O)(C5)C4)cccc12 | – |
| – | 125 | – | C[C@]1(C(=O)N[C@H]2C3CC4CC2C[C@](O)(C4)C3)CCCN1S(=O)(=O)c1ccccc1C#N | – |
| 15 | 112 | – | C[C@]1(C(=O)N[C@H]2C3CC4CC2C[C@](O)(C4)C3)CCCN1S(=O)(=O)c1cccs1 | – |
| 134 | 146 | – | C[C@]1(C(=O)N[C@H]2C3CC4CC2C[C@](O)(C4)C3)CCCN1S(=O)(=O)c1ccc(C#N)cc1Cl | – |
| 51 | 11 | – | C[C@]1(C(=O)N[C@H]2C3CC4CC2C[C@](O)(C4)C3)CCCN1S(=O)(=O)c1cccc2cccnc12 | IC50 [1]: 11 nM; clearance [2]: 60 mL/min/kg; inhibition in vivo at 30 mg/kg [14]: 89%; inhibition in vivo at 10 mg/kg [15]: 71%; AUC(0-t) [3]: 939 ng·h/mL; bioavailability [4]: 33%; bioavailability [5]: 3%; inhibition in vivo at 3 mg/kg [16]: 34%; inhibition [17]: Dose-dependent effect; half-life [6]: 14 min; Vd [7]: 0.63 L/kg; IC50 [8]: > 10000 nM; IC50 [11]: 7.7 nM; Activity [18]: 66%; Activity [19]: 11%; concentration at 2 min [20]: 28 ng/mL; concentration at 2 min [21]: 80 ng/mL; concentration at 62 min [22]: 94 ng/mL; Activity [23]: 29% |
| – | 63 | – | Cc1c(Cl)cccc1S(=O)(=O)N1CCC[C@@]1(C)C(=O)N[C@H]1C2CC3CC1C[C@](O)(C3)C2 | IC50 [11]: 3.1 nM |
| – | – | 12 | CC(C)(C)c1ccc(S(=O)(=O)N2CCC[C@]2(C)C(=O)N[C@H]2C3CC4CC2C[C@](O)(C4)C3)cc1 | – |
| 87 | – | 37 | C[C@]1(C(=O)N[C@H]2C3CC4CC2C[C@](O)(C4)C3)CCCN1S(=O)(=O)c1ccc(-c2ccccc2)cc1 | – |
